Data set [1] is described as follows: Relative cooling strength of individual coolants, organoleptic sequential dilution method versus standard 10 ppm WS-3 solution in water. In kind it is in vivo. As to conditions: relative to 10 ppm WS-3 in water assigned 10.0; values accepted in the art and confirmed by expert evaluation. From the text: The aqueous solutions of products for organoleptic tests were obtained by dissolving appropriate amounts of the products in propylene glycol PG and adding the PG solution to an appropriate amount of water.
A. Cooling strength values for individual coolants. Cooling strength values used in this invention for individual coolants were those generally accepted in the art and also additionally confirmed using expert evaluations conducted by Millennium Specialty Chemicals personnel on the basis of a sequential dilution method, i.e., a controlled dilution of samples to the concentration where their strength is about equal to the standard solution of WS-3. For purposes of Examples 55-60, a 10 ppm solution of WS-3 in water was used as the standard solution and was assigned a standardized cooling strength value of 10.0. The corresponding relative cooling strengths for the individual cooling agents were then assigned based upon an organoleptic determination of the approximate concentration of cooling agent that was required to provide about the same cooling strength as the standardized 10 ppm solution of WS-3.

Turning to `CC(C)[C@@H]1CC[C@@H](C)C[C@H]1OC(=O)CCCC(=O)O` [MMG, monomenthyl glutarate], the Relative cooling strength entry in data set [1] is “about 3.5”.

On to `CC1CCC(C(C)C)C(OC(=O)C(C)O)C1` (stereo not drawn) [Menthyl Lactate, l-Menthyl ester of lactic acid], for which, in data set [1], the Relative cooling strength result is recorded as “about 2.9”.

On to `CNC(=O)C1C(C)CCCC1(C)C` (stereo not shown) [N,2,2,6-Tetramethylcyclohexane-1-carboxamide], for which the melting point (in general, the temperature of the solid-liquid transition) was in the range of 146 to 148 °C. Besides, the Relative cooling strength result in data set [1] is “about 1.0”.

In the case of `CCNC(=O)[C@@H]1C[C@H](C)CC[C@H]1C(C)C` [WS-3, N-ethyl-3-p-menthane carboxamide], the Relative cooling strength in data set [1] was determined as 10.0.

As for `CCOC(=O)CNC(=O)C1CC(C)CCC1C(C)C` (stereo not shown) [WS-5, N-(ethoxycarbonylmethyl)-3-p-menthane carboxamide], in data set [1], the Relative cooling strength result is on record as “about 16.7”.

In turn, `CC(C)[C@@H]1CC[C@@H](C)C[C@H]1C(=O)NC(C)(C)C` [WS-14, N-tert-butyl-3-p-menthane carboxamide] came in with a melting point of 147 to 150 °C. For the same molecule, in data set [1], the Relative cooling strength result is “about 5.0”.

Take `CNC(=O)C(C)(C(C)C)C(C)C` [WS-23, N,2,3-trimethyl-2-isopropyl butanamide]: in data set [1], the Relative cooling strength entry is “about 5.0”.

With “Glyceryl ether of p-menthane-3-carboxylic acid [WS-30]”, the Relative cooling strength result in data set [1] is listed as “about 1.5”.

For the origin of these results see patent US7482378B2, “Physiological cooling compositions” (Millenium Specialty Chemicals, Inc., priority 2004, dated 2009).
